Assays:
Format in all cases: cell-based
[1] = tested on: Gram-positive cocci; test: Experiment Example 5: influence of composition pH (10.0% maltose), specimen culture, Gram smear; settings: 1.0% yeast extract, 1.6% xanthan gum
Excerpt: (§1) • (1)The preparation of the compositions: Maltose was used to prepare the following compositions according to the method mentioned above: • A. 10.0% maltose, 1.0% yeast extract, 1.6% xanthan gum, pH adjusted to 4.4; • B. 10.0% maltose, 1.0% yeast extract, 1.6% xanthan gum, pH adjusted to 4.8; • C. 10.0% maltose, 1.0% yeast extract, 1.6% xanthan gum, pH adjusted to 5.1; • D. 10.0% maltose, 1.0% yeast extract, 1.6% xanthan gum, pH adjusted to 5.4; • E. 10.0% maltose, 1.0% yeast extract, 1.6% xanthan gum, pH adjusted to 5.8; • F. 10.0% maltose, 1.0% yeast extract, 1.6% xanthan gum, pH adjusted to 6.4; • G. 10.0% maltose, 1.0% yeast extract, 1.6% xanthan gum, pH adjusted to 6.8; • H. 10.0% maltose, 1.0% yeast extract, 1.6% xanthan gum, pH adjusted to 7.2; • (2)The preparation of the test tubes: Compositions prepared above were filled into the test tubes, with each tube containing 5 ml, sterilized, and kept until use for experiments. • (3)Specimen suspension: Vaginal secretion was taken from one of the patients suffering from typical bacterial vaginosis with a cotton swab, then the swab was washed in 2 ml sterilized Trypcase-soy Broth immediately, and thus the specimen suspension was ready. […] Then the tubes were placed in a candle jar and cultivated at 37° C. After 24 hours and 48 hours' culture, culture samples were taken respectively from each of the tubes, then the Gram smears of the samples were observed and the pH values of culture samples were tested.

[2] = tested on: Gram-negative bacilli; test: as above; settings: 1.0% yeast extract, 1.6% xanthan gum
Excerpt: as §1

[3] = tested on: Gram-positive bacilli; test: as above; settings: 1.0% yeast extract, 1.6% xanthan gum
Excerpt: as §1

[4] = tested on: Gram-negative cocci; test: as above; settings: 1.0% yeast extract, 1.6% xanthan gum
Excerpt: as §1

[5] = tested on: vaginal secretion specimen of a patient suffering from typical bacterial vaginosis; test: Experiment Example 5: pH of culture samples (production of acids); settings: 10.0% maltose, 1.0% yeast extract, 1.6% xanthan gum
Excerpt: as §1

[6] = pH of the composition 4.4, 24 hours
[7] = pH of the composition 4.4, 48 hours
[8] = pH of the composition 4.8, 24 hours
[9] = pH of the composition 4.8, 48 hours
[10] = pH of the composition 5.1, 24 hours
[11] = pH of the composition 5.1, 48 hours
[12] = pH of the composition 5.4, 24 hours
[13] = pH of the composition 5.4, 48 hours
[14] = pH of the composition 5.8, 24 hours
[15] = pH of the composition 5.8, 48 hours
[16] = pH of the composition 6.4, 24 hours
[17] = pH of the composition 6.4, 48 hours
[18] = pH of the composition 6.8, 24 hours
[19] = pH of the composition 6.8, 48 hours
[20] = pH of the composition 7.2, 24 hours
[21] = pH of the composition 7.2, 48 hours

## OC[C@H]1O[C@H](O[C@H]2[C@H](O)[C@@H](O)[C@H](O)O[C@@H]2CO)[C@H](O)[C@@H](O)[C@@H]1O [Maltose, maltose]
[1]; [6]
  Bacteria G + c (Gram-positive cocci), 24 hours culture: G + c, − (No or less than one bacterium per field of version under oil-immersion lens)
[1]; [7]
  Bacteria G + c (Gram-positive cocci), 48 hours culture: G + c, − (No or less than one bacterium per field of version under oil-immersion lens)
[1]; [8]
  Bacteria G + c (Gram-positive cocci), 24 hours culture: G + c, + (1-9 bacteria per field of vision under oil-immersion lens)
[1]; [9]
  Bacteria G + c (Gram-positive cocci), 48 hours culture: G + c, + (1-9 bacteria per field of vision under oil-immersion lens)
[1]; [10]
  Bacteria G + c (Gram-positive cocci), 24 hours culture: G + c, + (1-9 bacteria per field of vision under oil-immersion lens)
[1]; [11]
  Bacteria G + c (Gram-positive cocci), 48 hours culture: G + c, ++ (About 10-99 bacteria per field of vision under oil-immersion lens)
[1]; [12]
  Bacteria G + c (Gram-positive cocci), 24 hours culture: G + c, + (1-9 bacteria per field of vision under oil-immersion lens)
[1]; [13]
  Bacteria G + c (Gram-positive cocci), 48 hours culture: G + c, − (No or less than one bacterium per field of version under oil-immersion lens)
[1]; [14]
  Bacteria G + c (Gram-positive cocci), 24 hours culture: G + c, + (1-9 bacteria per field of vision under oil-immersion lens)
[1]; [15]
  Bacteria G + c (Gram-positive cocci), 48 hours culture: G + c, + (1-9 bacteria per field of vision under oil-immersion lens)
[1]; [16]
  Bacteria G + c (Gram-positive cocci), 24 hours culture: G + c, + (1-9 bacteria per field of vision under oil-immersion lens)
[1]; [17]
  Bacteria G + c (Gram-positive cocci), 48 hours culture: G + c, + (1-9 bacteria per field of vision under oil-immersion lens)
[1]; [18]
  Bacteria G + c (Gram-positive cocci), 24 hours culture: G + c, − (No or less than one bacterium per field of version under oil-immersion lens)
[1]; [19]
  Bacteria G + c (Gram-positive cocci), 48 hours culture: G + c, + (1-9 bacteria per field of vision under oil-immersion lens)
[1]; [20]
  Bacteria G + c (Gram-positive cocci), 24 hours culture: G + c, − (No or less than one bacterium per field of version under oil-immersion lens)
[1]; [21]
  Bacteria G + c (Gram-positive cocci), 48 hours culture: G + c, − (No or less than one bacterium per field of version under oil-immersion lens)
[2]; [6]
  Bacteria G − b (Gram-negative bacilli), 24 hours culture: G − b, ++ (About 10-99 bacteria per field of vision under oil-immersion lens)
[2]; [7]
  Bacteria G − b (Gram-negative bacilli), 48 hours culture: G − b, ++ (About 10-99 bacteria per field of vision under oil-immersion lens)
[2]; [8]
  Bacteria G − b (Gram-negative bacilli), 24 hours culture: G − b, ++ (About 10-99 bacteria per field of vision under oil-immersion lens)
[2]; [9]
  Bacteria G − b (Gram-negative bacilli), 48 hours culture: G − b, ++ (About 10-99 bacteria per field of vision under oil-immersion lens)
[2]; [10]
  Bacteria G − b (Gram-negative bacilli), 24 hours culture: G − b, ++ (About 10-99 bacteria per field of vision under oil-immersion lens)
[2]; [11]
  Bacteria G − b (Gram-negative bacilli), 48 hours culture: G − b, ++ (About 10-99 bacteria per field of vision under oil-immersion lens)
[2]; [12]
  Bacteria G − b (Gram-negative bacilli), 24 hours culture: G − b, + (1-9 bacteria per field of vision under oil-immersion lens)
[2]; [13]
  Bacteria G − b (Gram-negative bacilli), 48 hours culture: G − b, ++ (About 10-99 bacteria per field of vision under oil-immersion lens)
[2]; [14]
  Bacteria G − b (Gram-negative bacilli), 24 hours culture: G − b, ++ (About 10-99 bacteria per field of vision under oil-immersion lens)
[2]; [15]
  Bacteria G − b (Gram-negative bacilli), 48 hours culture: G − b, ++ (About 10-99 bacteria per field of vision under oil-immersion lens)
[2]; [16]
  Bacteria G − b (Gram-negative bacilli), 24 hours culture: G − b, ++ (About 10-99 bacteria per field of vision under oil-immersion lens)
[2]; [17]
  Bacteria G − b (Gram-negative bacilli), 48 hours culture: G − b, ++ (About 10-99 bacteria per field of vision under oil-immersion lens)
[2]; [18]
  Bacteria G − b (Gram-negative bacilli), 24 hours culture: G − b, ++ (About 10-99 bacteria per field of vision under oil-immersion lens)
[2]; [19]
  Bacteria G − b (Gram-negative bacilli), 48 hours culture: G − b, ++ (About 10-99 bacteria per field of vision under oil-immersion lens)
[2]; [20]
  Bacteria G − b (Gram-negative bacilli), 24 hours culture: G − b, + (1-9 bacteria per field of vision under oil-immersion lens)
[2]; [21]
  Bacteria G − b (Gram-negative bacilli), 48 hours culture: G − b, ++ (About 10-99 bacteria per field of vision under oil-immersion lens)
[3]; [6]
  Bacteria G + b (Gram-positive bacilli), 24 hours culture: G + b, −˜+
[3]; [7]
  Bacteria G + b (Gram-positive bacilli), 48 hours culture: G + b, −˜+
[3]; [8]
  Bacteria G + b (Gram-positive bacilli), 24 hours culture: G + b, + (1-9 bacteria per field of vision under oil-immersion lens)
[3]; [9]
  Bacteria G + b (Gram-positive bacilli), 48 hours culture: G + b, + (1-9 bacteria per field of vision under oil-immersion lens)
[3]; [10]
  Bacteria G + b (Gram-positive bacilli), 24 hours culture: G + b, + (1-9 bacteria per field of vision under oil-immersion lens)
[3]; [12]
  Bacteria G + b (Gram-positive bacilli), 24 hours culture: G + b, +++ (About 100 bacteria or more per field vision under oil-immersion lens, even uncountable)
[3]; [14]
  Bacteria G + b (Gram-positive bacilli), 24 hours culture: G + b, ++ (About 10-99 bacteria per field of vision under oil-immersion lens)
[3]; [15]
  Bacteria G + b (Gram-positive bacilli), 48 hours culture: G + b, +++ (About 100 bacteria or more per field vision under oil-immersion lens, even uncountable)
[3]; [16]
  Bacteria G + b (Gram-positive bacilli), 24 hours culture: G + b, + (1-9 bacteria per field of vision under oil-immersion lens)
[3]; [17]
  Bacteria G + b (Gram-positive bacilli), 48 hours culture: G + b, +++ (About 100 bacteria or more per field vision under oil-immersion lens, even uncountable)
[3]; [18]
  Bacteria G + b (Gram-positive bacilli), 24 hours culture: G + b, ++ (About 10-99 bacteria per field of vision under oil-immersion lens)
[3]; [19]
  Bacteria G + b (Gram-positive bacilli), 48 hours culture: G + b, +++ (About 100 bacteria or more per field vision under oil-immersion lens, even uncountable)
[3]; [20]
  Bacteria G + b (Gram-positive bacilli), 24 hours culture: G + b, ++ (About 10-99 bacteria per field of vision under oil-immersion lens)
[3]; [21]
  Bacteria G + b (Gram-positive bacilli), 48 hours culture: G + b, +++ (About 100 bacteria or more per field vision under oil-immersion lens, even uncountable)
[4]; [6]
  Bacteria G − c (Gram-negative cocci), 24 hours culture: G − c, − (No or less than one bacterium per field of version under oil-immersion lens)
[4]; [7]
  Bacteria G − c (Gram-negative cocci), 48 hours culture: G − c, − (No or less than one bacterium per field of version under oil-immersion lens)
[4]; [8]
  Bacteria G − c (Gram-negative cocci), 24 hours culture: G − c, − (No or less than one bacterium per field of version under oil-immersion lens)
[4]; [9]
  Bacteria G − c (Gram-negative cocci), 48 hours culture: G − c, − (No or less than one bacterium per field of version under oil-immersion lens)
[4]; [10]
  Bacteria G − c (Gram-negative cocci), 24 hours culture: G − c, − (No or less than one bacterium per field of version under oil-immersion lens)
[4]; [11]
  Bacteria G − c (Gram-negative cocci), 48 hours culture: G − c, − (No or less than one bacterium per field of version under oil-immersion lens)
[4]; [12]
  Bacteria G − c (Gram-negative cocci), 24 hours culture: G − c, − (No or less than one bacterium per field of version under oil-immersion lens)
[4]; [13]
  Bacteria G − c (Gram-negative cocci), 48 hours culture: G − c, − (No or less than one bacterium per field of version under oil-immersion lens)
[4]; [14]
  Bacteria G − c (Gram-negative cocci), 24 hours culture: G − c, − (No or less than one bacterium per field of version under oil-immersion lens)
[4]; [15]
  Bacteria G − c (Gram-negative cocci), 48 hours culture: G − c, − (No or less than one bacterium per field of version under oil-immersion lens)
[4]; [16]
  Bacteria G − c (Gram-negative cocci), 24 hours culture: G − c, − (No or less than one bacterium per field of version under oil-immersion lens)
[4]; [17]
  Bacteria G − c (Gram-negative cocci), 48 hours culture: G − c, − (No or less than one bacterium per field of version under oil-immersion lens)
[4]; [18]
  Bacteria G − c (Gram-negative cocci), 24 hours culture: G − c, − (No or less than one bacterium per field of version under oil-immersion lens)
[4]; [19]
  Bacteria G − c (Gram-negative cocci), 48 hours culture: G − c, − (No or less than one bacterium per field of version under oil-immersion lens)
[4]; [20]
  Bacteria G − c (Gram-negative cocci), 24 hours culture: G − c, − (No or less than one bacterium per field of version under oil-immersion lens)
[4]; [21]
  Bacteria G − c (Gram-negative cocci), 48 hours culture: G − c, − (No or less than one bacterium per field of version under oil-immersion lens)
[5]; pH of the composition 4.4
  pH, 24 hours culture: 4.4
  pH, 48 hours culture: 4.4
[5]; pH of the composition 4.8
  pH, 24 hours culture: 4.8
  pH, 48 hours culture: 4.4-4.8
[5]; pH of the composition 5.1
  pH, 24 hours culture: 4.6
  pH, 48 hours culture: 4.4-4.6
[5]; pH of the composition 5.4
  pH, 24 hours culture: 5.4
  pH, 48 hours culture: 4.1-4.4
[5]; pH of the composition 5.8
  pH, 24 hours culture: 4.8
  pH, 48 hours culture: 4.1
[5]; pH of the composition 6.4
  pH, 24 hours culture: 4.4
  pH, 48 hours culture: 4.1
[5]; pH of the composition 6.8
  pH, 24 hours culture: 5.4
  pH, 48 hours culture: 4.4
[5]; pH of the composition 7.2
  pH, 24 hours culture: 5.4
  pH, 48 hours culture: 4.1

Reference: patent publication US6964949B2, “Pharmaceutical compositions for promoting the growth of gram-positive bacilli and increasing the acidity in the vagina and the use thereof” (Shanghai Jiao Da Onlly Co., Ltd., priority 2000, dated 2005)
